Experimental data published in patent US20240279237A1, “FUSED BICYCLIC HETEROARYL COMPOUNDS USEFUL AS NLRP3 INHIBITORS” (Hoffmann-La Roche Inc., priority 2021, published 2024).
Structures can show the parent of a compound that is named as a salt.

Biological target: T1, NLRP3 (Homo sapiens, UniProt Q96P20)
T1 construct: Seed THP-1 cells (25,000 cells/well) containing 1.0 μg/ml LPS in 40 μl of RPMI medium; host or cells: THP-1 cells
Assay: THP-1 Cells Pyroptosis Assay
Assay type: cell-based
Details: THP-1 cells with 1.0 μg/ml LPS; compound 3 hours; nigericin 5 μM 1 hr; resazurin readout
Method: The cells were routinely passaged and grown to confluency (˜10^6 cells/ml). On the day of the experiment, THP-1 cells were harvested and resuspended into RPMI medium (without FBS). The cells were then counted and viability (>90%) checked by Trypan blue (Sigma #T8154). […] To this diluted cell solution was added LPS (Sigma #L4524) to give a 1 μg/ml Final Assay Concentration (FAC). 40 μl of the final preparation was aliquoted into each well of a 96-well plate. The plate thus prepared was used for compound screening.
The following method step-by-step assay was followed for compound screening. • 1. […] Incubate for 3 hours at 37° C., 5% CO2 • 4. Add 5 μl nigericin (Sigma #N7143) (FAC 5 μM) to all wells • 5. Incubate for 1 hr at 37° C., 5% CO2 • 6. At the end of the incubation period, spin plates at 300×g for 3 mins and remove supernatant • 7. Then add 50 μl of resazurin (Sigma #R7017) (FAC 100 μM resazurin in RPMI medium without FBS) and incubate plates for a further 1-2 hours at 37° C. and 5% CO2 • 8.

T1 sequence (Q96P20 whole entry): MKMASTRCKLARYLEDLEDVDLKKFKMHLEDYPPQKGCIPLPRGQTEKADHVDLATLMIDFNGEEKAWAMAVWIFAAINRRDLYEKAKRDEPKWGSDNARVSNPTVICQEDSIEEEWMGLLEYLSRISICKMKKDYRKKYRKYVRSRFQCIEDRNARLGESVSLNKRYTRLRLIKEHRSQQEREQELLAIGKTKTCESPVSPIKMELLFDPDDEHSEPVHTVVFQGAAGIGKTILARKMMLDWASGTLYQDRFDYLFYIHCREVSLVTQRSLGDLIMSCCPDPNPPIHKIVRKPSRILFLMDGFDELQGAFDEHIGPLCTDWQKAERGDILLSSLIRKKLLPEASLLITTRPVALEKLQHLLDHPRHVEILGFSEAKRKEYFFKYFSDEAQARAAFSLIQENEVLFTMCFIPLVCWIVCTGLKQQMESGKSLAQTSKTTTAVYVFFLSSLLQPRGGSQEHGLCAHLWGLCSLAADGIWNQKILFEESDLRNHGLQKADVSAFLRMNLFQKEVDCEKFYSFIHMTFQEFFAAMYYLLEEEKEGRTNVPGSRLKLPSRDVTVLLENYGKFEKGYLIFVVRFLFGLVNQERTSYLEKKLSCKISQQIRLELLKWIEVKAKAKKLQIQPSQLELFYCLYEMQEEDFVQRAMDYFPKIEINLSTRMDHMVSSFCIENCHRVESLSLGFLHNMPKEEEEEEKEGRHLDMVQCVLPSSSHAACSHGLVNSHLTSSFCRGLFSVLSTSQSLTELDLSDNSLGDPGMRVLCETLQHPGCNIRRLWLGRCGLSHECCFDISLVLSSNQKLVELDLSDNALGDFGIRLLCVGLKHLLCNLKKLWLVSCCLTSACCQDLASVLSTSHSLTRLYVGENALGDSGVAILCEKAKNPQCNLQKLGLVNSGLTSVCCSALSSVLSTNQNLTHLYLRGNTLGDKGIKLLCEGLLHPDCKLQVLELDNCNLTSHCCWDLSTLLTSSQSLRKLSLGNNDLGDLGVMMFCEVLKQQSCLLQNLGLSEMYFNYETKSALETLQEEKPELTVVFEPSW

Molecule | IC50 [nM]
2-[2-[[(3R or 3S)-1-Ethyl-3-piperidyl]amino]-1H-imidazo[4,5-b]pyridin-5-yl]-3-methyl-5-(trifluoromethyl)phenol [Example 18A] | 4.1
2-[2-[[(3S or 3R)-1-Ethyl-3-piperidyl]amino]-1H-imidazo[4,5-b]pyridin-5-yl]-3-methyl-5-(trifluoromethyl)phenol [Example 18B] | 392
3-Methyl-2-[2-[[(2R)-1-methylazetidin-2-yl]methylamino]oxazolo[4,5-b]pyridin-5-yl]-5-(trifluoromethyl)phenol or 3-methyl-2-[2-[[(2S)-1-methylazetidin-2-yl]methylamino]oxazolo[4,5-b]pyridin-5-yl]-5-(trifluoromethyl)phenol [Example 66A] | 398
3-Methyl-2-[2-[[(2S)-1-methylazetidin-2-yl]methylamino]oxazolo[4,5-b]pyridin-5-yl]-5-(trifluoromethyl)phenol or 3-methyl-2-[2-[[(2R)-1-methylazetidin-2-yl]methylamino]oxazolo[4,5-b]pyridin-5-yl]-5-(trifluoromethyl)phenol [Example 66B] | 256
5-Chloro-2-[2-[[(3R)-1-ethyl-3-piperidyl]amino]oxazolo[4,5-b]pyridin-5-yl]-3-(trifluoromethoxy)phenol;2,2,2-trifluoroacetic acid [Example 114] | 1.1
5-Chloro-2-[2-[[(3R)-1-ethyl-3-piperidyl]amino]oxazolo[4,5-b]pyridin-5-yl]-4-fluoro-3-methyl-phenol;2,2,2-trifluoroacetic acid salt [Example 22] | 5.4
CNC1CCCC(Nc2nc3nc(-c4c(C)cc(C(F)(F)F)cc4O)ccc3o2)C1 (mixture of isomers) [Example 7, 3-Methyl-2-[2-[[3-(methylamino)cyclohexyl]amino]oxazolo[4,5-b]pyridin-5-yl]-5-(trifluoromethyl)phenol] | 82.1
CCN1CCCC(Nc2nc3nc(-c4c(C)cc(C(F)(F)F)cc4O)ccc3o2)C1 (racemic) [Example 1, (rac)-2-[2-[(1-Ethyl-3-piperidyl)amino]oxazolo[4,5-b]pyridin-5-yl]-3-methyl-5-(trifluoromethyl)phenol] | 1.9
Cc1cc(C(F)(F)F)cc(O)c1-c1ccc2oc(N3CCOCC3CN(C)C)nc2n1 (racemic) [Example 2, (rac)-2-[2-[3-[(Dimethylamino)methyl]morpholin-4-yl]oxazolo[4,5-b]pyridin-5-yl]-3-methyl-5-(trifluoromethyl)phenol] | 17.4
Cc1cc(C(F)(F)F)cc(O)c1-c1ccc2oc(N3CCCC(O)C3)nc2n1 (racemic) [Example 3, (rac)-1-[5-[2-Hydroxy-6-methyl-4-(trifluoromethyl)phenyl]oxazolo[4,5-b]pyridin-2-yl]piperidin-3-ol] | 75.4
Cc1cc(C(F)(F)F)cc(O)c1-c1ccc2oc(N3CCOC(CO)C3)nc2n1 (racemic) [Example 5, (rac)-[2-[2-(Hydroxymethyl)morpholin-4-yl]oxazolo[4,5-b]pyridin-5-yl]-3-methyl-5-(trifluoromethyl)phenol] | 31.9
Cc1cc(C(F)(F)F)cc(O)c1-c1ccc2oc(C3CCC(=O)NC3)nc2n1 (racemic) [Example 9, (rac)-5-(5-(2-Hydroxy-6-methyl-4-(trifluoromethyl)phenyl)oxazolo[4,5-b]pyridin-2-yl) piperidin-2-one] | 15.3
CNC1CCCN(c2nc3nc(-c4c(C)cc(C(F)(F)F)cc4O)ccc3o2)C1 (racemic) [Example 10, (rac)-3-Methyl-2-[2-[3-(methylamino)-1-piperidyl]oxazolo[4,5-b]pyridin-5-yl]-5-(trifluoromethyl) phenol] | 107
Cc1cc(C(F)(F)F)cc(O)c1-c1ccc2oc(NC3CCCOC3)nc2n1 (racemic) [Example 11, (rac)-3-Methyl-2-[2-(tetrahydropyran-3-ylamino)oxazolo[4,5-b]pyridin-5-yl]-5-(trifluoromethyl)phenol] | 217
Cc1cc(C(F)(F)F)cc(O)c1-c1ccc2[nH]c(C3CCCCN3C)nc2n1 (racemic) [Example 16, (rac)-3-Methyl-2-(2-(1-methylpiperidin-2-yl)-3H-imidazo[4,5-b]pyridin-5-yl)-5-(trifluoromethyl)phenol] | 330
Cc1cc(C(F)(F)F)cc(O)c1-c1ccc2[nH]c(C3CCCN3)nc2n1 (racemic) [Example 17, (rac)-3-Methyl-2-(2-(pyrrolidin-2-yl)-1H-imidazo[4,5-b]pyridin-5-yl)-5-(trifluoro-methyl)phenol] | 183
Cc1cc(C#N)cc(O)c1-c1ccc2oc(NC3CCCN4CCCC34)nc2n1 (racemic) [Example 29, (rac)-4-[2-(1,2,3,5,6,7,8,8a-Octahydroindolizin-8-ylamino)oxazolo[4,5-b]pyridin-5-yl]-3-hydroxy-5-methyl-benzonitrile] | 5.1
CCN1CCCC(Nc2nc3nc(-c4c(C)cc(C(F)(F)F)cc4O)cnc3o2)C1 (racemic) [Example 32, (rac)-2-[2-[(1-Ethyl-3-piperidyl)amino]oxazolo[4,5-b]pyrazin-5-yl]-3-methyl-5-(trifluoromethyl)phenol;2,2,2-trifluoroacetic acid salt] | 3
Cc1cc(C(F)(F)F)cc(O)c1-c1ccc2oc(NC3CCOC3)nc2n1 (racemic) [Example 38, (rac)-3-Methyl-2-[2-(tetrahydrofuran-3-ylamino)oxazolo[4,5-b]pyridin-5-yl]-5-(trifluoromethyl)phenol] | 85.3
Cc1cc(Cl)cc(O)c1-c1cc(N2CCCC2=O)c2oc(N[C@@H]3CCCN(C)C3)nc2n1 (racemic) [Example 60, 1-[5-(4-Chloro-2-hydroxy-6-methyl-phenyl)-2-[[rac-(3R)-1-methyl-3-piperidyl]amino]oxazolo[4,5-b]pyridin-7-yl]pyrrolidin-2-one] | 17.9
Cc1cc(C(F)(F)F)cc(O)c1-c1ccc2oc(N3CCO[C@H]4CNC[C@@H]43)nc2n1 (racemic) [Example 64, 3-Methyl-2-[2-[rac-(4aS,7aS)-3,4a,5,6,7,7a-hexahydro-2H-pyrrolo[3,4-b][1,4]oxazin-4-yl]oxazolo[4,5-b]pyridin-5-yl]-5-(trifluoromethyl)phenol;2,2,2-trifluoroacetic acid] | 4.9
Cc1cc(Cl)cc(O)c1-c1ccc2oc(N[C@@H]3CCCN(C[C@@H]4CC[C@H]4O)C3)nc2n1 (racemic) [Example 118A, 5-chloro-2-[2-[[(3R)-1-[[rac trans-2-hydroxycyclobutyl]methyl]-3-piperidyl]amino]oxazolo[4,5-b]pyridin-5-yl]-3-methyl-phenol or 5-chloro-2-[2-[[(3R)-1-[[rac cis-2-hydroxycyclobutyl]methyl]-3-piperidyl]amino]oxazolo[4,5-b]pyridin-5-yl]-3-methyl-phenol] | 50.8
Cc1cc(Cl)cc(O)c1-c1ccc2oc(N[C@@H]3CCCN(C[C@@H]4CC[C@H]4O)C3)nc2n1 (racemic) [Example 118B, 5-chloro-2-[2-[[(3R)-1-[[rac trans-2-hydroxycyclobutyl]methyl]-3-piperidyl]amino]oxazolo[4,5-b]pyridin-5-yl]-3-methyl-phenol or 5-chloro-2-[2-[[(3R)-1-[[rac cis-2-hydroxycyclobutyl]methyl]-3-piperidyl]amino]oxazolo[4,5-b]pyridin-5-yl]-3-methyl-phenol] | 30.6
Cc1cc(C(F)(F)F)cc(O)c1-c1ccc2oc(N3CCOCC3CN(C)C)nc2n1 (single isomer, unassigned) [Example 2A, 2-[2-[(3R or 3S)-3-[(Dimethylamino)methyl]morpholin-4-yl]oxazolo[4,5-b]pyridin-5-yl]-3-methyl-5-(trifluoromethyl)phenol] | 129
Cc1cc(C(F)(F)F)cc(O)c1-c1ccc2oc(N3CCOCC3CN(C)C)nc2n1 (single isomer, unassigned) [Example 2B, 2-[2-[(3S or 3R)-3-[(Dimethylamino)methyl]morpholin-4-yl]oxazolo[4,5-b]pyridin-5-yl]-3-methyl-5-(trifluoromethyl)phenol] | 16.9
Cc1cc(C(F)(F)F)cc(O)c1-c1ccc2oc(N3CCCC(O)C3)nc2n1 (single isomer, unassigned) [Example 3A, (3R or 3S)-1-[5-[2-hydroxy-6-methyl-4-(trifluoromethyl)phenyl]oxazolo[4,5-b]pyridin-2-yl]piperidin-3-ol] | 75
Cc1cc(C(F)(F)F)cc(O)c1-c1ccc2oc(N3CCCC(O)C3)nc2n1 (single isomer, unassigned) [Example 3B, (3S or 3R)-1-[5-[2-hydroxy-6-methyl-4-(trifluoromethyl)phenyl]oxazolo[4,5-b]pyridin-2-yl]piperidin-3-ol] | 28.6
Cc1cc(C#N)cc(O)c1-c1ccc2oc(N3CCC4CCN(C)CC43)nc2n1 (single isomer, unassigned) [Example 27A, 4-[2-[(3aS,7aR or 3aR,7aS)-6-methyl-3,3a,4,5,7,7a-hexahydro-2H-pyrrolo[2,3-c]pyridin-1-yl]oxazolo[4,5-b]pyridin-5-yl]-3-hydroxy-5-methyl-benzonitrile] | 578
